Experimental data as given in US7253177B2, “Synthesis and antimalarial activity of pyrrolo[3,2-f]quinazoline-1,3-diamine derivatives” (United States of America as Represented by the Secretary of …, priority 2004, dated 2007).
Converted amounts (≈) assume the structure as drawn. “And” between values parts separate entries of the source, which are not always exact repeats. Equal entries are not always repeated.

Legend:
[1] = tested on: Plasmodium falciparum RCS (Isolates from Brazil); experiment: In vitro antimalarial study, [3H]hypoxanthine uptake, RCS clone; format: cell-based; settings: P. falciparum RCS clone
Description: B. Antimalarial Activities: (a). In Vitro Antimalarial Studies. The in vitro assays were conducted by using a modification of the semiautomated microdilution technique of Desjardins et al and Chulay et al.. Four P. falciparum malaria parasite clones, from CDC Indochina III (W-2), CDC Sierra Leone I (D-6), Southeast Asia Isolates (TM91C235) and RCS (Isolates from Brazil) were utilized in susceptibility testing. They were derived by direct visualization and micromanipulation from patient isolates. The W-2 clone is susceptible to mefloquine but resistant to chloroquine, sulfadoxine, pyrimethamine, and quinine, whereas the D-6 clone is naturally resistant to mefloquine but susceptible to chloroquine, sulfadoxine, pyrimethamine and quinine. Test compounds were initially dissolved in DMSO and diluted 400 fold in RPMI 1640 culture medium supplemented with 25 mM Hepes, 32 mM NaHCO3 and 10% Albumax I (Gibco BRL, Grand Island, N.Y.). These solutions were subsequently serially diluted two-fold with a Biomek 1000 (Beckman, Fullerton, Calif.) over 11 different concentrations. The parasites were exposed to serial dilutions of each compound for 48 hrs and incubated at 37° C. with 5% O2, 5% CO2 and 90% N2 prior to the addition of [^3H]hypoxanthine. After a further incubation of 18 hrs, parasite DNA was harvested from each microtiter well using Packard Filtermate 196 Harvester (Meriden, Conn.) onto glass filters. Uptake of [^3H]hypoxanthine was measured with a Packard Topcount Scintillation. Concentration-response data were analyzed by a non-linear regression logistic dose response model and the IC50 values (50% inhibitory concentrations) for each compound were calculated. (Table 3). (b). In Vivo Antimalarial Studies against P. berghei in mice: The in vivo efficacy of the artelinic acid analogs were determined in a modified Thompson test. This test measures the survivability of mice and parasitemia clearance following administration of drug on days 3-5 post infection. In brief, 5×10^6 P. berghei-infected erythrocytes (KBG-173 strain) were inoculated intraperitoneally to female mice that weighed 24-30 g. By day three post-infection, parasitemia ranged from 1.0-3.7%. Each drug, dissolved in 5% sodium bicarbonate, was administered PO twice daily from day 3-5 post-infection. Total doses for each drug ranged from 1.5-384 mg/kg with 8 mice included in each dosage group. The percent suppression of parasitemia in the treated mice compared to the untreated controls was determined for each test compound; the SD-50 (fifty percent suppression dose) and SD-90 were determined from a non-linear regression logistic dose response fit at day 6 parasitemia data. Survival of mice to day 60 post-infection was considered a cure (C). Compounds were considered active (A) when the survival time of the treated mice was greater than twice the control mice, i.e., 12-14 day (Table 4-5). (c). Sporozoite Induced Test Each compound is ground with a mortar & pestle and suspended in 0.5% hydroxyethylcellulose—0.1% Tween 80 for compounds to be administered PO and those given SC are suspended in peanut oil. Each compound is prepared at 3 different dose levels as requested by WRAIR. Compounds are administered either PO or SC to mice once 4 hr before inoculation of sporozoites. Four-week-old male CD-1 mice, purchased from Charles River and weighing 16-17 g, are placed 5 per cage and allowed to acclimate for 4 days before being treated and then inoculated with sporozoites. They are fed food and water ad-lib and maintained at 76° F. with 12 hr light and 12 hr darkness. The cages and water bottles are changed biweekly. The mice are weighed on Days 0, 3 and 6 then biweekly when blood films are taken. Plasmodium yoelii (17×) is used to infect mice that will be used to infect the mosquitoes. Mice are given a single dose of test compound 4 hr before being inoculated intraperitoneally with 2.5×10^5 sporozoites of Plasmodium yoelii on Day 0. […]

P. vivax AMRU-1 strain = experiment: Antimalarial activity against P. vivax in Aotus monkey; format: in vivo, Plasmodium vivax; settings: for # Monkey Cured/# Monkey Used, P. vivax: cured = parasitemia free for 100 days post treatment; for outcome against P. vivax at 1 and 3 mg/kg/day x3: po, antifolate-resistant clone with four DHFR mutations
Description: (e). Toxicity Study in Aotus monkey: Protocol: Two malaria double cured Aotus weighing 1027-695 grams respectively received single dose of 3 mg/kg orally of the two compounds 2b and 3e. The monkeys were weighed and pre-bleed for CBC and Chemistry (ALT, BUN, Creatinine) determination, and again three, seven and 15 days post treatment. Signs of toxicity such as anorexia, vomiting, diarrhea or behavior changes were recorded. […] (f). Antimalarial Activity against P. falciparum in Aotus monkey: Protocol: Six (6) malaria naive Aotus lemurinus lemurinus (weigh 787-978 grms) were divided into two groups of two Aotus each plus two controls (MN13177 male and MN 13153 male) and infected with 5×10^6 P. falciparum FVO malaria parasites with 1 ml of an appropriate dilution in RPMI media intravenously on the saphenous vein. When their parasitemia reached 5×10^4 parasites/ul, treatment was started. Giemsa-stained thick blood smears were prepared daily with a prick in the ear marginal vein and parasites enumerated by the Earle and Perez method. Group 1 Aotus received 3e at 1 mg/kg once a day×three days. Group 2 Aotus received 2b at 1 mg/kg once a day×three days. The monkeys were weight and pre-bled for CBC and Chemistry (ALT, BUN, Creatinine) determination, and on day 4 post-treatmetne (PT). Bleedings for Pk determinations were carried out on day 1 PT at time 0, 1 hr, 7:30 hr and 24 hr PT. Group 1 (receiving 3e) animals cleared the parasitemias on day 3 post treatment (PT) and remained negative up to 100 days PT. In group 2 (receiving 2b), one animal cleared on day 3 PT and the other one on day 4 PT remaining negative up to 100 days PT. […] (g). Antimalarial Activity against P. vivax in Aotus monkey: Protocol: Fourteen (14) P. falciparum cured Aotus l. lemurinus monkeys (male and female) (weight 700-925 grms) were infected intravenously with 5×10^6 parasites of the P. vivax AMRU-1 strain diluted in RPMI media obtained from a donor and divided into two larger groups of 6 monkeys each (Group I and Group II) (2 monkeys per dose level), that received 3e and 6 monkeys (2 monkeys per dose level) that received 2b daily at 0.5, 1.0 and 3 mg/kg/day for a total of 3 days. Two monkeys were left has untreated controls. Treatment started when parasitemia reached 5,000 parasites×cc/mm on day 6 PI. Daily food intake was documented. Daily Giemsa-stained thick blood smears were prepared from a prick in the marginal ear vein and parasites enumerated by the Earle and Perez method. The animals were weighed at weekly intervals. Blood samples for Pk determination were collected at the following time points as follows: Day 0: CBC and chemistry panel (ALT. Creatinine and BUN); Day 4: CBC and chemistry Panel. CBC and chemistry panels were done the day prior to first dose and 24 hours after last dose and at weekly intervals thereafter. […] The other monkeys received 1 and 3 mg/kg of 3e remained negative until day 100 PT. In Group II, all monkeys except for one that received 3 mg/kg of 2b failed treatment and were retreated on day 3 PT with 3e at either 0.25, 0.5 or 1 mg/kg for three days. In the monkeys that received re-treatment at 0.25 mg/kg, one cleared on day 4 PT but needed to be treated with Mefloquine on day 8 PT due to a low platelet count. The other animals that had not been cleared by day 6 PT were treated with Mefloquine. […] P. vivax is known to be very drug resistant to antifolates. (h). Presumptive Causal Prophylactic Test against P. cynomolgi in Rhesus monkey: Protocol: […]

`CC(=O)N(C(C)=O)c1nc(N(C(C)=O)C(C)=O)c2c(ccc3c2ccn3Cc2ccccc2C(F)(F)F)n1` [Compound 3e, 1,3-Bis(diacetylamino)-7-(2-trifluoromethyl)benzyl-7H-pyrrolo[3,2-f]quinazoline] was tested, and the IC50 ([1]; Plasmodium falciparum) was 0.0236 ng/mL (≈ 0.0449 nM), the “# Monkey Cured/# Monkey Used, P. vivax” value (P. vivax AMRU-1 strain; 0.5 mg/kg/day x 3 days) was 0/2 and the “outcome against P. vivax at 0.5 mg/kg” value (P. vivax AMRU-1 strain; 0.5 mg/kg/day x 3 days, two monkeys) was “suppressed the parasitemia but needed re-treatment on day 10 PT”. For the same molecule, the “# Monkey Cured/# Monkey Used, P. vivax” value (P. vivax AMRU-1 strain; 1 mg/kg/day x 3 days) was 2/2, the “# Monkey Cured/# Monkey Used, P. vivax” value (P. vivax AMRU-1 strain; 3 mg/kg/day x 3 days) was 2/2 and the “remained negative until day PT” value (P. vivax AMRU-1 strain; P. vivax, 1 and 3 mg/kg x 3 days) was 100 days. For the same molecule, the “outcome against P. vivax at 1 and 3 mg/kg/day x3” value (P. vivax AMRU-1 strain) was “cured and 4/4”.

`CCOC(=O)Nc1nc(NC(=O)OCC)c2c(ccc3c2ccn3Cc2ccccc2C(F)(F)F)n1` [Compound 2b] was tested, and the “IC50 RCS” value [1] was greater than 250 ng/mL, the “activity against P. vivax at 0.5 and 1 mg/kg x3” value (P. vivax AMRU-1 strain) was “not active” and the “# Monkey Cured/# Monkey Used, P. vivax” value (P. vivax AMRU-1 strain; 0.5 mg/kg/day x 3 days) was 0/2. For the same molecule, the “# Monkey Cured/# Monkey Used, P. vivax” value (P. vivax AMRU-1 strain; 1 mg/kg/day x 3 days) was 0/2, the “# Monkey Cured/# Monkey Used, P. vivax” value (P. vivax AMRU-1 strain; 3 mg/kg/day x 3 days, 3 mg/kg/day) was “one out of two and 1/2” and the “outcome against P. vivax at 1 and 3 mg/kg/day x3” value (P. vivax AMRU-1 strain) was “less active”.
